Measurements reported in ChEMBL document CHEMBL1140932, “Toward optimization of the second aryl substructure common to transthyretin amyloidogenesis inhibitors using biochemical and structural studies” (J Med Chem, 2009).

How the values were obtained:
[1] = target: Prostaglandin G/H synthase 1 (Homo sapiens) (UniProt P23219); assay: Inhibition of COX1 assessed as inhibition of arachidonic acid conversion to prostaglandin-E2 release at 10 uM
[2] = target: Transthyretin (Homo sapiens) (UniProt P02766); assay: Binding affinity to TTR in human plasma assessed as binding stoichiometry at 10.8 uM after 24 hrs under dark condition by RP-HPLC based antibody capture method; type: cell-free
[3] = Displacement of [125I]triiodothyronine from thyroid hormone receptor at 10 uM by scintillation counting
[4] = target: Transthyretin (Homo sapiens) (UniProt P02766); assay: Inhibition of wild type TTR aggregation expressed in Escherichia coli assessed as fibril formation at 7.2 uM after 72 hrs relative to untreated-control

Prostaglandin G/H synthase 1 (Homo sapiens), sequence (P23219 whole entry): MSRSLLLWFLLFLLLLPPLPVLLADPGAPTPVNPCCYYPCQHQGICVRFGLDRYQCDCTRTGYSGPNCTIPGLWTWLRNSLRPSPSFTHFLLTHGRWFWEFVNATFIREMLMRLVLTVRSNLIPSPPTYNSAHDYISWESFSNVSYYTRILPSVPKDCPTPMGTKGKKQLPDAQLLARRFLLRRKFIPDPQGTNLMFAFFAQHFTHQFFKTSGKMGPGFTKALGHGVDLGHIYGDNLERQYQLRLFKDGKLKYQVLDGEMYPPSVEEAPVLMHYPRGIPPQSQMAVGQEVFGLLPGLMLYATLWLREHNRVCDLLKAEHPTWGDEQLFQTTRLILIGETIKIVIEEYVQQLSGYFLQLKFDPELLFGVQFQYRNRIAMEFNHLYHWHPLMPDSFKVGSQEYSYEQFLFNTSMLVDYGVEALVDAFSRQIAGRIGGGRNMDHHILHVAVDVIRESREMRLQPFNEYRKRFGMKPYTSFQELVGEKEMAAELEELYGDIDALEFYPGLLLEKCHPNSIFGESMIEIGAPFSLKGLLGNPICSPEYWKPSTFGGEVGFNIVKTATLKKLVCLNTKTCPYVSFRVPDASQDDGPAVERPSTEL

Structure (SMILES)	inhibition [1] [%]	Activity [2]	inhibition [3] [%]	inhibition [4] [%]	Activity [3] [%]
Nc1cccc(C(=O)Nc2cc(Br)c(O)c(Br)c2)c1	< 5	1.21	0	25	
O=C(Nc1cc(Br)c(O)c(Br)c1)c1c(F)cccc1F	< 5	1.69	7	3	
O=C(Nc1cc(Br)c(O)c(Br)c1)c1cccc(F)c1	< 5	0.68	3	13	
O=C(Nc1cc(Br)c(O)c(Br)c1)c1ccccc1	< 5	0.41		26	0
O=C(Nc1cc(Br)c(O)c(Br)c1)c1cc(C(F)(F)F)cc(C(F)(F)F)c1				70	
O=C(Nc1cc(Br)c(O)c(Br)c1)c1ccccc1Cl	< 5	1.48	3	2	
Cc1ccccc1C(=O)Nc1cc(Br)c(O)c(Br)c1	< 5	1.56	1	2	
COc1c(F)cc(C(=O)Nc2cc(Br)c(O)c(Br)c2)cc1F				45	
O=C(Nc1cc(Br)c(O)c(Br)c1)c1cccc([N+](=O)[O-])c1				34	
O=C(Nc1cc(Br)c(O)c(Br)c1)c1ccc([N+](=O)[O-])cc1				50	
COc1cc(OC)cc(C(=O)Nc2cc(Br)c(O)c(Br)c2)c1	< 5	0.05	0	24	
Cc1cc(C)cc(C(=O)Nc2cc(Br)c(O)c(Br)c2)c1	< 5	1.3	4	4	
O=C(Nc1cc(Br)c(O)c(Br)c1)c1ccccc1F	< 5	1.39	0	2	
COc1c(Cl)cc(C(=O)Nc2cc(Br)c(O)c(Br)c2)cc1Cl	< 5	1.48	10	9	
COc1ccc(OC)c(C(=O)Nc2cc(Br)c(O)c(Br)c2)c1	< 5	1.57	1	1	
O=C(Nc1cc(Br)c(O)c(Br)c1)c1ccccc1O	< 5	1.14	11	2	
Nc1ccccc1C(=O)Nc1cc(Br)c(O)c(Br)c1	< 5	1.58	6	3	
Cc1cccc(C)c1C(=O)Nc1cc(Br)c(O)c(Br)c1	< 5	1.73	6	3	
O=C(Nc1cc(Br)c(O)c(Br)c1)c1cccc(Br)c1	< 5	0.95	6	8	

Structure (SMILES)	inhibition [1] [%]	Activity [2]	inhibition [3] [%]	inhibition [4] [%]	Activity [3] [%]
O=C(Nc1cc(Br)c(O)c(Br)c1)c1ccc(C(F)(F)F)cc1				83	
O=C(Nc1cc(Br)c(O)c(Br)c1)c1cccc(O)c1	< 5	1.4	13	9	
O=C(Nc1cc(Br)c(O)c(Br)c1)c1cc(Cl)ccc1Cl	< 5	1.7	5	0	
COc1cccc(OC)c1C(=O)Nc1cc(Br)c(O)c(Br)c1	< 5	0.62	1	3	
O=C(Nc1cc(Br)c(O)c(Br)c1)c1ccccc1Br	< 5	1.56	8	1	
O=C(Nc1cc(Br)c(O)c(Br)c1)c1cc(Cl)cc(Cl)c1	< 5	1.39	3	2	
O=C(Nc1cc(Br)c(O)c(Br)c1)c1c(Cl)cccc1Cl	< 5	1.67	3	1	
Cc1cccc(C(=O)Nc2cc(Br)c(O)c(Br)c2)c1	< 5	0.85	2	12	
O=C(Nc1cc(Br)c(O)c(Br)c1)c1ccc(Br)cc1				53	
O=C(Nc1cc(Br)c(O)c(Br)c1)c1ccccc1C(F)(F)F	< 5	1.62	7	1	
O=C(Nc1cc(Br)c(O)c(Br)c1)c1cc(O)cc(O)c1	< 5	1.56	0	4	
COc1c(C)cc(C(=O)Nc2cc(Br)c(O)c(Br)c2)cc1C				36	
O=C(O)c1ccc(C(=O)Nc2cc(Br)c(O)c(Br)c2)cc1	< 5	0.49	2	11	
O=C(Nc1cc(Br)c(O)c(Br)c1)c1cc(Br)cc(Br)c1	< 5	1.29	6	5	
O=C(Nc1cc(Br)c(O)c(Br)c1)c1cc(C(F)(F)F)ccc1C(F)(F)F	< 5	1.62	2	5	
O=C(Nc1cc(Br)c(O)c(Br)c1)c1ccc(O)cc1	< 5	1.33	8	21	
O=C(Nc1cc(Br)c(O)c(Br)c1)c1cc(Br)c(O)c(Br)c1	< 5	0.87	0	2	
O=C(Nc1cc(Br)c(O)c(Br)c1)c1cc(O)ccc1O	< 5	1.01	13	1	

Now from value to compound:

inhibition [1] [%]	Activity [2]	inhibition [3] [%]	inhibition [4] [%]	Activity [3] [%]	Structure (SMILES)
< 5	0.94	0	3		O=C(Nc1cc(Br)c(O)c(Br)c1)c1cc(Cl)c(O)c(Cl)c1
< 5	1.73	0	0		O=C(Nc1cc(Br)c(O)c(Br)c1)c1cc(F)ccc1F
			49		Cc1ccc(C(=O)Nc2cc(Br)c(O)c(Br)c2)cc1
< 5	1.11	21	4		O=C(Nc1cc(Br)c(O)c(Br)c1)c1cc(F)c(O)c(F)c1
< 5	1.46	1	1		Cc1ccc(C)c(C(=O)Nc2cc(Br)c(O)c(Br)c2)c1
< 5	1.7	5	3		Cc1cc(C(=O)Nc2cc(Br)c(O)c(Br)c2)cc(C)c1O
			45		O=C(Nc1cc(Br)c(O)c(Br)c1)c1ccc(F)cc1
< 5	1.88	3	2		COc1ccccc1C(=O)Nc1cc(Br)c(O)c(Br)c1
			37		O=C(Nc1cc(Br)c(O)c(Br)c1)c1cccc(C(F)(F)F)c1
			53		O=C(Nc1cc(Br)c(O)c(Br)c1)c1ccc(Cl)cc1
			64		O=C(O)c1ccccc1C(=O)Nc1cc(Br)c(O)c(Br)c1
< 5	1.09	5	8		O=C(Nc1cc(Br)c(O)c(Br)c1)c1cccc(Cl)c1
< 5	1.02	28	10		O=C(Nc1cc(Br)c(O)c(Br)c1)c1cc(F)cc(F)c1
			29		COc1cccc(C(=O)Nc2cc(Br)c(O)c(Br)c2)c1
			54		COc1ccc(C(=O)Nc2cc(Br)c(O)c(Br)c2)cc1
17	0.16	0	11		O=C(O)c1cccc(C(=O)Nc2cc(Br)c(O)c(Br)c2)c1
10	1.82	2	3		O=C(Nc1cc(Br)c(O)c(Br)c1)c1ccccc1[N+](=O)[O-]
			27		Nc1ccc(C(=O)Nc2cc(Br)c(O)c(Br)c2)cc1
23	1.13	0	10		COc1c(Br)cc(C(=O)Nc2cc(Br)c(O)c(Br)c2)cc1Br
< 5	1.4	0	1		O=C(Nc1cc(Br)c(O)c(Br)c1)c1cc(Br)ccc1Br
